Data reported in PubChem BioAssay AID248 (DTP/NCI, 2004).
Where “and” joins values, the source holds several entries; their conditions need not be identical. Identical values can stand only once. Toxic doses and inconclusive results are not listed. Rule as the data show it: active = T/C of 150% or more; inactive = T/C below 125%. Square brackets hold non-standard residues; d marks the D form. Peptide text beside a SMILES is read from it. * marks the point of attachment. Cbz = O=C(OCc1ccccc1)*; Sar = CNCC(=O)O

Tested on: L1210 leukemia ip in BDF1 mice, survival T/C
Assay: NCI In Vivo Anticancer Drug Screen. Data for tumor model L1210 Leukemia (intraperitoneal) in B6D2F1 (BDF1) mice
Conditions: endpoint: mean survival time, higher = longer survival
In short: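 Tumor was transplanted into mice, which were then dosed with test compound or vehicle alone. Survival was recorded for each group, and the treated figure was expressed relative to the control figure.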

[1] = dose: 100.0 mg/kg/injection, schedule: Q01DX001 (ip), vehicle: saline
[2] = dose: 200.0 mg/kg/injection, schedule: Q01DX001 (ip), vehicle: saline
[3] = dose: 400.0 mg/kg/injection, schedule: Q01DX001 (ip), vehicle: carboxymethylcellulose (CMC)
[4] = dose: 400.0 mg/kg/injection, schedule: Q01DX001 (ip), vehicle: saline
[5] = dose: 50.0 mg/kg/injection, schedule: Q01DX009 (ip), vehicle: saline with Tween-80
[6] = dose: 100.0 mg/kg/injection, schedule: Q04DX003 (ip), vehicle: Klucel (hydroxypropylcellulose) (HPC)
[7] = dose: 200.0 mg/kg/injection, schedule: Q04DX003 (ip), vehicle: Klucel (hydroxypropylcellulose) (HPC)
[8] = dose: 400.0 mg/kg/injection, schedule: Q04DX003 (ip), vehicle: Klucel (hydroxypropylcellulose) (HPC)
[9] = dose: 50.0 mg/kg/injection, schedule: Q01DX001 (ip), vehicle: saline
[10] = dose: 100.0 mg/kg/injection, schedule: Q01DX001 (ip), vehicle: carboxymethylcellulose (CMC)
[11] = dose: 200.0 mg/kg/injection, schedule: Q01DX001 (ip), vehicle: carboxymethylcellulose (CMC)
[12] = dose: 100.0 mg/kg/injection, schedule: Q01DX009 (ip), vehicle: Klucel (hydroxypropylcellulose) (HPC)

Measured: T/C

Cc1ccc(C(=O)OCC2OC(n3cnc4c(=S)nc(N)[nH]c43)C(OC(=O)c3ccc(C)cc3)C2OC(=O)c2ccc(C)cc2)cc1 (stereo unspecified)
active: dose: 800.0 mg/kg/injection, schedule: Q01DX009 (ip), vehicle: saline 172 % of control
inactive: [1] 95 % of control | dose: 100.0 mg/kg/injection, schedule: Q01DX009 (ip), vehicle: saline 106 % of control | [2] 101 % of control | dose: 200.0 mg/kg/injection, schedule: Q01DX009 (ip), vehicle: saline 112 % of control | [3] 111 % of control | [4] 106 % of control | dose: 400.0 mg/kg/injection, schedule: Q01DX009 (ip), vehicle: saline 116 % of control | dose: 600.0 mg/kg/injection, schedule: Q01DX001 (ip), vehicle: carboxymethylcellulose (CMC) 105 % of control | dose: 800.0 mg/kg/injection, schedule: Q01DX001 (ip), vehicle: carboxymethylcellulose (CMC) 119 % of control | dose: 1000.0 mg/kg/injection, schedule: Q01DX001 (ip), vehicle: carboxymethylcellulose (CMC) 116 % of control

CCCCOP(=O)(CCCC)OCCCC
inactive: dose: 12.5 mg/kg/injection, schedule: Q01DX009 (ip), vehicle: saline with Tween-80 103 % of control | dose: 12.5 mg/kg/injection, schedule: Q04DX003 (ip), vehicle: saline with Tween-80 86 % of control | dose: 25.0 mg/kg/injection, schedule: Q01DX009 (ip), vehicle: saline with Tween-80 92 % of control | dose: 25.0 mg/kg/injection, schedule: Q04DX003 (ip), vehicle: saline with Tween-80 104 % of control | [5] 92 % of control | dose: 50.0 mg/kg/injection, schedule: Q04DX003 (ip), vehicle: saline with Tween-80 93 % of control and 94 % of control

CCCC(=O)OCC(=O)c1ccc(-c2ccccc2)cc1
inactive: [1] 96 % of control | [2] 94 % of control | [4] 94 % of control

Nc1ccn(C2OC(CO)C(OP(=O)(O)O)C2O)c(=O)n1 (stereo unspecified)
inactive: dose: 40.0 mg/kg/injection, schedule: Q01DX001 (ip), vehicle: water 102 % of control | dose: 80.0 mg/kg/injection, schedule: Q01DX001 (ip), vehicle: water 97 % of control

O=S1CCCO1 (stereo unspecified)
inactive: dose: 4.7 mg/kg/injection, schedule: Q01DX009 (ip), vehicle: saline 100 % of control | dose: 9.4 mg/kg/injection, schedule: Q01DX009 (ip), vehicle: saline 96 % of control | dose: 18.8 mg/kg/injection, schedule: Q01DX009 (ip), vehicle: saline 93 % of control | dose: 75.0 mg/kg/injection, schedule: Q01DX001 (ip), vehicle: saline 98 % of control

N=C(N)Cc1ccc(CCc2ccc(CC(=N)N)cc2)cc1
inactive: dose: 12.5 mg/kg/injection, schedule: Q01DX Z (oral), vehicle: saline 97 % of control | dose: 25.0 mg/kg/injection, schedule: Q01DX Z (oral), vehicle: saline 100 % of control | dose: 50.0 mg/kg/injection, schedule: Q01DX Z (oral), vehicle: saline 97 % of control | dose: 100.0 mg/kg/injection, schedule: Q01DX Z (oral), vehicle: saline 100 % of control

O=C(Nc1ccccc1O)c1ccccc1
inactive: [6] 109 % of control | [7] 102 % of control | [8] 101 % of control

Nc1cc(=O)[nH]c(=S)n1-c1ccc(I)cc1
inactive: [9] 100 % of control | [1] 106 % of control | [2] 102 % of control | [4] 100 % of control

O=C(CNC(=O)Nc1ccc(Cl)c(Cl)c1)N/N=C/c1cccc(F)c1
inactive: [5] 96 % of control | dose: 100.0 mg/kg/injection, schedule: Q01DX009 (ip), vehicle: saline with Tween-80 93 % of control | dose: 200.0 mg/kg/injection, schedule: Q01DX009 (ip), vehicle: saline with Tween-80 89 % of control

Cc1cc2nc3[nH]c4ccccc4c3nc2cc1C
inactive: dose: 12.5 mg/kg/injection, schedule: Q01DX015 (ip), vehicle: saline 98 % of control | dose: 25.0 mg/kg/injection, schedule: Q01DX015 (ip), vehicle: saline 87 % of control | [9] 91 % of control | dose: 50.0 mg/kg/injection, schedule: Q01DX015 (ip), vehicle: saline 115 % of control | [1] 94 % of control | dose: 100.0 mg/kg/injection, schedule: Q01DX015 (ip), vehicle: saline 120 % of control | [2] 91 % of control | dose: 200.0 mg/kg/injection, schedule: Q01DX015 (ip), vehicle: saline 108 % of control and 90 % of control | [4] 97 % of control | dose: 400.0 mg/kg/injection, schedule: Q01DX015 (ip), vehicle: saline 104 % of control | dose: 800.0 mg/kg/injection, schedule: Q01DX001 (ip), vehicle: saline 103 % of control | dose: 800.0 mg/kg/injection, schedule: Q01DX015 (ip), vehicle: saline 87 % of control

CN(C)C(=O)Nc1cccc(OC(=O)NC2CC2)c1
inactive: dose: 100.0 mg/kg/injection, schedule: Q04DX003 (ip), vehicle: saline with Tween-80 96 % of control | dose: 200.0 mg/kg/injection, schedule: Q04DX003 (ip), vehicle: saline with Tween-80 95 % of control | dose: 400.0 mg/kg/injection, schedule: Q04DX003 (ip), vehicle: saline with Tween-80 90 % of control

COc1ccc(C2CCCCCC2OS(C)(=O)=O)c(OC)c1OC (stereo unspecified)
inactive: [10] 108 % of control | [11] 119 % of control

CN(CC(N)=O)C(=O)CNC(=O)OCc1ccccc1 (Cbz-Gly-[Sar]-NH2)
inactive: [6] 96 % of control | [7] 99 % of control | [8] 97 % of control

COC(=O)CCCCn1ccc(=O)[nH]c1=O
inactive: dose: 100.0 mg/kg/injection, schedule: Q04DX002 (ip), vehicle: Klucel (hydroxypropylcellulose) (HPC) 100 % of control | dose: 200.0 mg/kg/injection, schedule: Q04DX002 (ip), vehicle: Klucel (hydroxypropylcellulose) (HPC) 104 % of control | dose: 400.0 mg/kg/injection, schedule: Q04DX002 (ip), vehicle: Klucel (hydroxypropylcellulose) (HPC) 100 % of control

Cc1ccc(C2CCCN2C)cc1 (stereo unspecified)
inactive: dose: 25.0 mg/kg/injection, schedule: Q04DX003 (ip), vehicle: acetone 96 % of control | dose: 50.0 mg/kg/injection, schedule: Q04DX003 (ip), vehicle: acetone 94 % of control | dose: 100.0 mg/kg/injection, schedule: Q01DX001 (ip), vehicle: acetone 88 % of control | dose: 100.0 mg/kg/injection, schedule: Q04DX003 (ip), vehicle: acetone 99 % of control

CC(C)S(=O)(=O)/C(Cl)=C(/Cl)C(Cl)=C(Cl)Cl
inactive: dose: 12.5 mg/kg/injection, schedule: Q01DX009 (ip), vehicle: Klucel (hydroxypropylcellulose) (HPC) 106 % of control | dose: 25.0 mg/kg/injection, schedule: Q01DX009 (ip), vehicle: Klucel (hydroxypropylcellulose) (HPC) 101 % of control | dose: 50.0 mg/kg/injection, schedule: Q01DX009 (ip), vehicle: Klucel (hydroxypropylcellulose) (HPC) 95 % of control | [12] 87 % of control

O=C(NCCCCCCCCCNC(=O)Nc1ccc(C2=NCCN2)cc1)Nc1ccc(C2=NCCN2)cc1
inactive: dose: 62.0 mg/kg/injection, schedule: Q01DX Z (ip), vehicle: carboxymethylcellulose (CMC) 102 % of control | dose: 125.0 mg/kg/injection, schedule: Q01DX Z (ip), vehicle: carboxymethylcellulose (CMC) 100 % of control

C=C1CC(C)(C)C(c2ccccc2)OC1=O (stereo unspecified)
inactive: dose: 100.0 mg/kg/injection, schedule: Q01DX001 (ip), vehicle: saline with Tween-80 107 % of control | dose: 200.0 mg/kg/injection, schedule: Q01DX001 (ip), vehicle: saline with Tween-80 102 % of control

CCOc1cc(/C=N/NC(=O)c2ccccc2NC(=O)c2ccccc2Cl)ccc1O
inactive: [12] 90 % of control | dose: 200.0 mg/kg/injection, schedule: Q01DX009 (ip), vehicle: Klucel (hydroxypropylcellulose) (HPC) 95 % of control | dose: 400.0 mg/kg/injection, schedule: Q01DX009 (ip), vehicle: Klucel (hydroxypropylcellulose) (HPC) 92 % of control

CC(=O)OCCC/C(=C/c1ccc(/C=C(\CCCOC(C)=O)[N+](=O)[O-])cc1)[N+](=O)[O-]
inactive: [10] 92 % of control | [11] 97 % of control | [3] 91 % of control
